Like-named read-outs stand apart in the source and are kept apart here.
What was measured:
neuroblastoma cell lines = conditions: most neuroblastoma cell lines; Table I, no reference given; cited from earlier work
[1] = Pharmacokinetic pilot study, YM155 in blood/plasma after single i.v. administration; type: in vivo, mice; conditions: for half-life / Vd: 1 mg/kg
Experimental: (§1) Animal experiments were conducted in compliance with the national regulations and have been approved by the local ethical committee for animal experimentation. NMRI nu/nu female mice (25 g, Charles River, Massachusetts, USA) were housed in a temperature-controlled room (approximately 22°C) with 55 to 65% relative humidity, a photoperiod of 12/12 h with free access to water and pelleted rodent food. The mice were challenged with KCNR neuroblastoma (passage 1–2) derived from DAG102776 by serial xenotransplantation in both flanks. When the tumor growth reached the size of approximately 8 × 8 mm, mice were randomly divided in three groups that were injected intravenously with either free YM155 dissolved in HBS (1 mg/kg, n = 11), YM155 loaded anti-GD2-immunoliposomes (3 μmol TL/kg diluted in HBS, equivalent to 1 mg/kg YM155, n = 11), or an equivalent dose of YM155 loaded control liposomes (n = 11). At designated time points (i.e. 5 min, 9 min, 15 min, 30 min, 1 h, 4 h, 8 h, 24 h, 48 h and 72 h), blood samples (approximately 0.5 ml per sampling time point) were collected in tubes containing EDTA as anticoagulant and mice were sacrificed. Blood samples and excised tumors were stored at −80°C until analysis of their YM155 concentration by liquid chromatography-tandem mass spectrometry (LC-MS/MS) ([34]).
(§2) Pharmacokinetic analysis of the in-vivo data was performed using the Pk Solver 2.0 add-in template for Microsoft Excel, as described previously ([35]). Pharmacokinetic parameters were determined by non-compartmental analysis (NCA) using linear-logarithmic trapezoidal model fitting, or by compartmental analysis (CA) using 1-compartment model fitting.

KCNR cells = assay: alamarBlue viability assay; type: cell-based; conditions: 24 h incubation, read-out: IC50 (cell viability)
Experimental: Efficacy of YM155 loaded liposomes (targeted and non-targeted control liposomes) was studied on KCNR by alamarBlue viability assay (Thermo Fischer Scientific), according to the supplier’s instruction. KCNR cells were seeded at 20 × 10^3 cells/well in 96 well Greiner polystyrene plates (Sigma Aldrich) in complete DMEM medium and allowed to adhere overnight. The medium was replaced by cell culture medium supplemented with YM155 or YM155 liposomal formulations at concentrations ranging from 0.8 to 100 nM, after which the cell culture were incubated for 24 h at 37°C. Control experiments included incubations with empty liposomes (i.e. without YM155) at equivalent TL concentrations in the range of 0.08–11 μM TL. After 24 h of incubation, medium was replaced with drug-free medium containing alamarBlue reagent (10 vol%), after which cells were incubated for an extra 3 h at 37°C. Fluorescence was quantified with a microplate reader (Mithras LB940) and used to calculate the relative percentage of living cells normalized against control cells that had not been treated with YM155. IC50 values were calculated by curve fitting using non-linear regression in Graph Pad Prism 6.0.

[2] = Table I, no reference given; cited from earlier work
[3] = Tumor accumulation of YM155 in subcutaneous KCNR tumor xenografts; type: in vivo, mice; conditions: single i.v. 1 mg/kg
Experimental: as §1, with “At designated time points (i.e. 5 min, 9 min, 15 min, 30 min, 1 h, 4 h, 8 h, 24 h, 48 h and 72 h), blood samples (approximately 0.5 ml per sampling time point) were collected in tubes containing EDTA as anticoagulant and mice were sacrificed. Blood samples and excised tumors were stored at −80°C until analysis of their YM155 concentration by liquid chromatography-tandem mass spectrometry (LC-MS/MS) ([34]).” left out
as §2

[4] = cited from earlier work

AUC(0-inf) ([1]; female, NMRI nu/nu, mouse, iv, single i.v. 1 mg/kg, NCA, blood/plasma): 136 ng·h/mL
half-life ([1]; female, NMRI nu/nu, mouse, plasma, iv, single i.v. 1 mg/kg YM155, female mice with KCNR xenografts, non-compartmental analysis, read-out: t1/2 (NCA) (converted)): 24 min
Vd ([1]; female, NMRI nu/nu, mouse, plasma, iv, single i.v. 1 mg/kg, NCA, read-out: Vss): 2.47 L/kg
Vd ([1]; female, NMRI nu/nu, mouse, plasma, iv, single i.v. 1 mg/kg, NCA, read-out: Vz): 4.65 L/kg
half-life ([1]; female, NMRI nu/nu, mouse, plasma, iv, single i.v. 1 mg/kg, compartmental analysis, 1-compartment model, read-out: CA t1/2 (converted)): 12 min
clearance ([1]; female, NMRI nu/nu, mouse, plasma, iv, single i.v. 1 mg/kg, NCA): 122 mL/min/kg
MRT inf ([1]; female, NMRI nu/nu, mouse, plasma, iv, single i.v. 1 mg/kg, NCA, read-out: MRT0-∞): 20.4 min
Time plasma levels were detectable post administration ([1]; single i.v. 1 mg/kg): about 8 h
Time intratumor levels of YM155 could be detected post injection [3]: up to 24 h
SMILES: COCCn1c2c([n+](Cc3cnccn3)c1C)C(=O)c1ccccc1C2=O [YM155, Sepantronium bromide]
IC50 (neuroblastoma cell lines): Low nM range for most neuroblastoma cell lines
IC50 (KCNR cells): 0.027 µM
LogP [2]: −3.7
Solubility in water [2]: At least 0,5 mg/ml
pKa [2]: 5.3
Previously reported half-life [4]: ~ 1 h
Plasma half-life ([4]; mice and rats): 60 to 120 min
